{
  "source": "patent EP4759820A1",
  "about": "“METHOD FOR PRODUCING PEPTIDE COMPOUND USING STAND-ALONE-TYPE CONDENSING AGENT” (CHUGAI SEIYAKU KABUSHIKI KAISHA, priority 2023, dated 2025)",
  "origin": "cited, not measured here",
  "conditions": "water as solvent, 25°C, literature reference given with each value",
  "note": "Read-outs that look alike come from different tables or passages of the source.",
  "data": [
    {"smiles": "ON=c1[nH]cc[nH]1", "note": "[1,3-Dihydro-2H-imidazol-2-one oxime]", "values": [
      {"measurement": "pKa", "setting": "representative additives", "value": 8.2}
    ]},
    {"smiles": "CN(C)[S+]([O-])C(=NO)c1ccccc1", "note": "(stereo not shown) [1-(Hydroxyimino)-N,N-dimethyl-1-phenylmethanesulfinamide]", "values": [
      {"measurement": "pKa", "setting": "representative additives", "value": 7.4}
    ]},
    {"smiles": "O=[N+]([O-])C(CCc1ccccc1)=NO", "note": "[1-Nitro-3-phenylpropan-1-oneoxime]", "values": [
      {"measurement": "pKa", "setting": "representative additives", "value": 7.4}
    ]},
    {"smiles": "NC(=O)C(=NO)c1nccs1", "note": "[2(Hydroxyimino)-2-(thiazol-2-yl)acetamide]", "values": [
      {"measurement": "pKa", "setting": "representative additives", "value": 8.7}
    ]},
    {"smiles": "C[n+]1ccccc1C(=NO)c1ccccn1.[I-]", "note": "[2-((Hydroxyimino)(pyridin-2-yl)methyl)-1-methylpyridin-1-iumiodide]", "values": [
      {"measurement": "pKa", "setting": "representative additives", "value": 5.6}
    ]},
    {"smiles": "NC(=O)C(=NO)c1ccco1", "note": "[2-(Furan-2-yl)-2-(hydroxyimino)acetamide]", "values": [
      {"measurement": "pKa", "setting": "representative additives", "value": 9.4}
    ]},
    {"smiles": "NC(=O)C(=NO)c1ccc[nH]1", "note": "[2-(Hydroxyimino)-2-(1H-pyrrol-2-yl)acetamide]", "values": [
      {"measurement": "pKa", "setting": "representative additives", "value": 9.4}
    ]},
    {"smiles": "CS(=O)(=O)C(=NO)C(N)=O", "note": "[2-(Hydroxyimino)-2-(methylsulfonyl)acetamide]", "values": [
      {"measurement": "pKa", "setting": "representative additives", "value": 9.4}
    ]},
    {"smiles": "NC(=O)C(=NO)c1cnccn1", "note": "[2-(Hydroxyimino)-2-(pyrazin-2-yl)acetamide]", "values": [
      {"measurement": "pKa", "setting": "representative additives", "value": 9.4}
    ]},
    {"smiles": "NC(=O)C(=NO)c1ncccn1", "note": "[2-(Hydroxyimino)-2-(pyrimidin-2-yl)acetamide]", "values": [
      {"measurement": "pKa", "setting": "representative additives", "value": 9.4}
    ]},
    {"smiles": "NC(=S)C(=NO)c1ncccn1", "note": "[2-(Hydroxyimino)-2-(pyrimidin-2-yl)ethanethioamide]", "values": [
      {"measurement": "pKa", "setting": "representative additives", "value": 10.5}
    ]},
    {"smiles": "NC(=O)C(=NO)c1cccs1", "note": "[2-(Hydroxyimino)-2-(thiophen-2-yl)acetamide]", "values": [
      {"measurement": "pKa", "setting": "representative additives", "value": 9.4}
    ]},
    {"smiles": "C#CC(=NO)C(N)=O", "note": "[2-(Hydroxyimino)but-3-ynamide]", "values": [
      {"measurement": "pKa", "setting": "representative additives", "value": 9.4}
    ]},
    {"smiles": "NC(=O)C(=NO)C(N)=O", "note": "[2-(Hydroxyimino)malonamide]", "values": [
      {"measurement": "pKa", "setting": "representative additives", "value": 9.4}
    ]},
    {"smiles": "CN1C(=O)C(=NO)c2ccccc21", "note": "[3-(Hydroxyimino)-1-methylindolin-2-one]", "values": [
      {"measurement": "pKa", "setting": "representative additives", "value": 9.4}
    ]},
    {"smiles": "O=C1C(=NO)c2ccccc2N1c1ccccc1", "note": "[3-(Hydroxyimino)-1-phenylindoline-2-one]", "values": [
      {"measurement": "pKa", "setting": "representative additives", "value": 9.0}
    ]},
    {"smiles": "ON=C1c2ccccc2-c2ccccc21", "note": "[9H-Fluoren-9-one oxime]", "values": [
      {"measurement": "pKa", "setting": "representative additives", "value": 11.1}
    ]},
    {"smiles": "CS(=O)(=O)C(=NO)[S+](N)[O-]", "note": "(stereo not shown) [(Hydroxyimino)(methylsulfonyl)methanesulfinamide]", "values": [
      {"measurement": "pKa", "setting": "representative additives", "value": 9.4}
    ]},
    {"smiles": "ON=C1c2ccccc2C(=NO)c2ccccc21", "note": "[Anthracene-9,10-dionedioxime]", "values": [
      {"measurement": "pKa", "setting": "representative additives", "value": 7.1}
    ]},
    {"smiles": "CC(=NO)C(C)=NO", "note": "[Butane-2,3-dionedioxime]", "values": [
      {"measurement": "pKa", "setting": "representative additives", "value": 12.1}
    ]},
    {"smiles": "CCOC(=O)C(NO)C(=O)OCC", "note": "[Diethyl 2-(hydroxyamino)malonate]", "values": [
      {"measurement": "pKa", "setting": "representative additives", "value": 7.2}
    ]},
    {"smiles": "CC(C)OC(=O)C(=NO)C(=O)OC(C)C", "note": "[Diisopropyl 2-(hydroxyimino)malonate]", "values": [
      {"measurement": "pKa", "setting": "representative additives", "value": 7.2}
    ]},
    {"smiles": "CCOC(=O)C(=NO)c1ccco1", "note": "[Ethyl 2-(furan-2-yl)-2-(hydroxyimino)acetate]", "values": [
      {"measurement": "pKa", "setting": "representative additives", "value": 9.6}
    ]},
    {"smiles": "CCOC(=O)C(NO)[N+](=O)[O-]", "note": "(stereo not shown) [Ethyl 2-(hydroxyamino)-2-nitroacetate]", "values": [
      {"measurement": "pKa", "setting": "representative additives", "value": 4.7}
    ]},
    {"smiles": "CCOC(=O)C(=NO)S(=O)(=O)C(F)(F)F", "note": "[Ethyl 2-(hydroxyimino)-2-((trifluoromethyl)sulfonyl)acetate]", "values": [
      {"measurement": "pKa", "setting": "representative additives", "value": 4.2}
    ]},
    {"smiles": "CCOC(=O)C(=NO)c1cnccn1", "note": "[Ethyl 2-(hydroxyimino)-2-(pyrazin-2-yl)acetate]", "values": [
      {"measurement": "pKa", "setting": "representative additives", "value": 9.4}
    ]},
    {"smiles": "CCOC(=O)C(=NO)c1ccccn1", "note": "[Ethyl 2-(hydroxyimino)-2-(pyridine-2-yl)acetate]", "values": [
      {"measurement": "pKa", "setting": "representative additives", "value": 9.6}
    ]},
    {"smiles": "CCOC(=O)C(=NO)c1ccncc1", "note": "[Ethyl 2-(hydroxyimino)-2-(pyridine-4-yl)acetate]", "values": [
      {"measurement": "pKa", "setting": "representative additives", "value": 9.6}
    ]},
    {"smiles": "CCOC(=O)C(=NO)c1ncccn1", "note": "[Ethyl 2-(hydroxyimino)-2-(pyrimidin-2-yl)acetate]", "values": [
      {"measurement": "pKa", "setting": "representative additives", "value": 9.6}
    ]},
    {"smiles": "CCOC(=O)C(=NO)c1cccs1", "note": "[Ethyl 2-(hydroxyimino)-2-(thiophen-2-yl)acetate]", "values": [
      {"measurement": "pKa", "setting": "representative additives", "value": 9.6}
    ]},
    {"smiles": "CCOC(=O)C(=NO)S(N)(=O)=O", "note": "[Ethyl 2-(hydroxyimino)-2-sulfamoylacetate]", "values": [
      {"measurement": "pKa", "setting": "representative additives", "value": 5.8}
    ]},
    {"smiles": "CCOC(=O)C(=NO)c1ccc[nH]1", "note": "[Ethyl 2-(hydroxyimino)-(1H-pyrrol-2-yl)acetate]", "values": [
      {"measurement": "pKa", "setting": "representative additives", "value": 9.6}
    ]},
    {"smiles": "C#CC(=NO)C(=O)OCC", "note": "[Ethyl 2-(hydroxyimino)but-3-ynoate]", "values": [
      {"measurement": "pKa", "setting": "representative additives", "value": 9.6}
    ]},
    {"smiles": "O=c1c2ncccc2ncn1O", "note": "[HODhad, 3-Hydroxypyrido[3,2-d]pyrimidin-4(3H)-one]", "values": [
      {"measurement": "pKa", "setting": "representative additives", "value": 5.8}
    ]},
    {"smiles": "O=C1Cc2ccccc2N1O", "note": "[HOI, 1-Hydroxyindolin-2-one]", "values": [
      {"measurement": "pKa", "setting": "representative additives", "value": 8.3}
    ]},
    {"smiles": "O=C1CCC(=O)N1O", "note": "[HOSu, 1-Hydroxypyrrolidine-2,5-dione]", "values": [
      {"measurement": "pKa", "setting": "representative additives", "value": 7.7}
    ]},
    {"smiles": "N#CC(=NO)c1ccccc1", "note": "[Hydroxyimino-2-phenylacetonitrile]", "values": [
      {"measurement": "pKa", "setting": "representative additives", "value": 8.2}
    ]},
    {"smiles": "ON=C1NCCN1", "note": "[Imidazolidin-2-one oxime]", "values": [
      {"measurement": "pKa", "setting": "representative additives", "value": 12.5}
    ]},
    {"smiles": "NC(=O)C(NO)C(=O)N(O)O", "note": "(stereo not shown) [N',N'-Dihydroxy-2-(hydroxyamino)malonamide]", "values": [
      {"measurement": "pKa", "setting": "representative additives", "value": 7.7}
    ]},
    {"smiles": "NC(=NO)c1cnccn1", "note": "[N'-Hydroxypyrazine-2-carboximidamide]", "values": [
      {"measurement": "pKa", "setting": "representative additives", "value": 12.5}
    ]},
    {"smiles": "CN1CCOCC1", "note": "[N-methylmorpholine]", "values": [
      {"measurement": "pKa", "setting": "conjugate acid of the base", "value": 7.38}
    ]},
    {"smiles": "O=[N+]([O-])C(=NO)c1ccccc1", "note": "[Nitro(phenyl)methanone oxime]", "values": [
      {"measurement": "pKa", "setting": "representative additives", "value": 7.6}
    ]},
    {"smiles": "ON=c1[nH]cco1", "note": "[Oxazol-2(3H)-one oxime]", "values": [
      {"measurement": "pKa", "setting": "representative additives", "value": 6.6}
    ]},
    {"smiles": "ON=C1NCCO1", "note": "[Oxazolidin-2-one oxime]", "values": [
      {"measurement": "pKa", "setting": "representative additives", "value": 12.5}
    ]},
    {"smiles": "CCOC(=O)C(C#N)=NO", "note": "[oxyma, ethyl 2-cyano-2-(hydroxyimino)acetate]", "values": [
      {"measurement": "pKa", "setting": "representative additives", "value": 4.60}
    ]},
    {"smiles": "CC(C)(C)OC(=O)C(C#N)=NO", "note": "[tert-Butyl 2-cyano-2-(hydroxyimino)acetate]", "values": [
      {"measurement": "pKa", "setting": "representative additives", "value": 4.60}
    ]}
  ]
}
